The values that follow come from patent US20260345594A1, “Methods and Compositions for Controlling Jet Lag, Chronotype, or Circadian Rhythm” (University of Pittsburgh - Of the Commonwealth System of …, priority 2022, published 2026).

One assay concerns the target T1, Melanopsin (Homo sapiens, UniProt Q9UHM6).
T1 construct: V2 tail; expressed in transfected cells; host or cells: HTLA cells (HEK293 cell line with tTA-dependent luciferase reporter and β-arrestin2-TEV fusion)
T1 sequence (Q9UHM6 1-478): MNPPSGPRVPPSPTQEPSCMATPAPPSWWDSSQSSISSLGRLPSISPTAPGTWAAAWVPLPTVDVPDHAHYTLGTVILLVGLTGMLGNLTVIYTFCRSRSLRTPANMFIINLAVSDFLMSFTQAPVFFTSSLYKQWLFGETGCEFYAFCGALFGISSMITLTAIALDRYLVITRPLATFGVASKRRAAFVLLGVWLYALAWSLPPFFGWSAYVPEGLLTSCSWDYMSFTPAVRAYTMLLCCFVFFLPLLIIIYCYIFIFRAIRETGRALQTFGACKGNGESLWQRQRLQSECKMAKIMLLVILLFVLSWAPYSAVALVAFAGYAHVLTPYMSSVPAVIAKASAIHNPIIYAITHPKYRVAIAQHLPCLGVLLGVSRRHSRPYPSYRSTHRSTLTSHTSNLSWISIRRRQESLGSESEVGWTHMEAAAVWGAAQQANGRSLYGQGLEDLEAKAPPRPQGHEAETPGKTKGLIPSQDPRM
Kind of assay: Melanopsin (OPN4) Presto-Tango luciferase screen. To be noted: HTLA cells, LED light, agonist alone, read-out: EC50 of receptor activation by the ligand. The class given is cell-based. An excerpt:
(§1) Presto-Tango Assay: Empty Tango plasmid was generated from Addgene plasmid #66225. Melanopsin was amplified by pcr from pAAV-GFAP104-melanopsin-mCherry (Addgene plasmid #122630) and AVPR1a from hV1aR-GFP (Addgene plasmid #67846) and cloned to generate OPN4- and AVPR1a-Tango plasmid. HTLA cells (a HEK293 cell line stably expressing a tTA-dependent luciferase reporter and a β-arrestin2-TEV fusion gene—a gift from Bryan Roth) was transfected with OPN4-Tango or AVPR1A-Tango plasmids. The HTLA Cells are grown in DMEM supplemented with 10% FBS, 100 U/ml penicillin and 100 μg/ml streptomycin, 2 μg/ml puromycin and 100 μg/ml hygromycin B (HTLA medium) in a humidified atmosphere at 37 °C in 5% CO2 (HTLA Medium).
(§2) Luciferase activity was measured using Bright-Glo Luciferase (Promega #E2160) assay.
(§3) Day 1: HTLA cells were plated in at 9 to 10×10^6 cells per 100 mm cell culture dish in HTLA Medium.
(§4) Day 2: The cells were transfected using the Polyethylenimine method. […]
(§5) Day 5: The medium containing drug solutions were removed from the wells (by aspiration or shaking), and 50 μL per well of Bright-Glo solution (Promega) diluted 10-fold in filter-sterilized assay buffer, which consisted of 20 mM HEPES and 1×HBSS at pH 7.4 and 1 mM Glucose were added to each well. After incubation for 15 to 20 minutes at room temperature, luminescence was counted in a BioTek-Flx-800 luminescence counter.

Assay [1] concerns the target T2, AVPR1a (human vasopressin 1a receptor, V1AR) (Homo sapiens, UniProt P37288).
T2 construct: V2 tail; expressed in transfected cells; host or cells: HTLA cells (HEK293 cell line with tTA-dependent luciferase reporter and β-arrestin2-TEV fusion)
Kind of assay: AVPR1a Presto-Tango luciferase screen. The class given is cell-based.
Text: as §1, §2, §3, §4, §5

T2 sequence (P37288 whole entry, the tested form may be a part): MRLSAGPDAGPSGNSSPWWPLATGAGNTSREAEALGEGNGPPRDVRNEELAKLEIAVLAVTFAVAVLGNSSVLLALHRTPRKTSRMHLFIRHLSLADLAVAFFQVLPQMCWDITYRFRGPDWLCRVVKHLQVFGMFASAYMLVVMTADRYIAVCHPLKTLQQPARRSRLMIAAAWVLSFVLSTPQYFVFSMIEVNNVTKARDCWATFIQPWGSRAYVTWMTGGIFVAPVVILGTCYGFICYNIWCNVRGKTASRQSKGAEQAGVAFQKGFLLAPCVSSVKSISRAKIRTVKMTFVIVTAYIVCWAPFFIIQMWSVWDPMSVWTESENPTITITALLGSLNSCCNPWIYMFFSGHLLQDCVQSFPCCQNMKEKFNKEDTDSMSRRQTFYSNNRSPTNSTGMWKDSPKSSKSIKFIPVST

In general, EC50 refers to the midpoint of the concentration-response curve. Take `CC1=C(/C=C/C(C)=C\C=C\C(C)=C\C=O)C(C)(C)CCC1` [9-cis-Retinol]: at Melanopsin, the EC50 was about 250 nM.
As for `Cc1ccc2[nH]cc(CCNC(=O)Cn3c(=O)c(=O)n(Cc4ccccc4)c4ccccc43)c2c1` [MolPort-007-880-661], the IC50 in assay [1] (5 nM Arginine Vasopressin, 16 hrs illumination (FIG. 9), inhibitor, read-out: EC50 (allosteric inhibition of AVPR1a, ratio of luciferase activity over positive control)) is 360 nM. Moreover, the “V1AR inhibition validated by in vitro experiments” value in assay [1] (in words) was “effective V1AR inhibitors”.
